Data set [1] deals with MCP-1 (monocyte chemoattractant protein 1) expression. Put plainly: MCP-1 ELISA (inflammation assay in HAECs). The format is cell-based. As to conditions: Endothelial cell; HAEC supernatants; TNFα (0.5 ng/mL) or glycated human serum albumin (300 μg/mL), 18-24 h; read-out: IC50, MCP-1 enzyme-linked immunosorbent assay. As for the experimental part:
(§1) For inflammation assays, human aortic endothelial cells (HAECs) in 96 well plates were washed once with treatment medium (basal medium containing 1% FBS). Cells were treated with an inflammatory agent such as TNFα (0.5 ng/mL) or glycated human serum albumin (US Biologicals) as source of advanced glycation end products (AGEs) (300 μg/mL) for 18-24 h in the presence or absence of specified amount of compound. Cell supernatants were collected and used for measuring MCP-1 (monocyte chemoattractant protein 1) or IL-6 (interleukin-6) expression by ELISA. Cell layers were washed and used for determining vascular cell adhesion molecule-1 (VCAM-1) expression.
MCP-1 ELISA was carried out using Quantikine Human MCP-1 kit as described by the manufacturer (R&D Systems, Inc.). Mouse anti-human MCP-1 was used as the capture antibody and HRP (horse radish peroxidase)-conjugated goat anti-human MCP-1 antibody was used as detection antibody. Culture medium was incubated with the capture antibody (in 96-well plate) for 2 h at room temperature. Wells were washed three times with wash buffer (0.05% Tween-20 in PBS) followed by incubation with detection antibody for 2 h at room temperature. Color development was read at […] in a microplate reader.
Background: In an ELISA, binding on a coated surface is turned into a signal by an enzyme label.

For data set [2], the system named is vascular cell adhesion molecule-1 (VCAM-1) expression. Put plainly: VCAM-1 ELISA (inflammation assay in HAECs). It counts as cell-based. As to conditions: HAEC cell layers; TNFα (0.5 ng/mL) or glycated human serum albumin (300 μg/mL), 18-24 h; read-out: IC50, VCAM-1 enzyme-linked immunosorbent assay. The protocol: as §1
The cells were fixed cells with 100% methanol for 10 min at room temperature. The methanol was removed and the plate was air-dried. 100 μl of 1:1000 diluted primary antibody (polyclonal goat anti-human VCAM-1—R&D Systems #BBA19) was then added and incubated for 2 h at 37 C. The cells were washed with PBS and 100 μl of 1:5000 dilution of secondary antibody (rabbit anti-goat IgG-HRP—Zymed #81-1620) was added and incubated for 1 h at room temperature. Cells were washed and 100 μl of substrate solution (R&D Systems# DY999) was added and incubated for 20 min in the dark at room temp. 50 μl of stop solution (2N sulfuric acid) was added to the wells and absorbency at 450 nm was noted.

Data set [3] deals with human aortic smooth muscle cells. The data set is described as follows: Smooth muscle cell proliferation assay. The format is cell-based. The conditions noted are these: human aortic SMC, growth medium containing serum, 24 h post treatment; for IC50: read-out: Effect: concentration giving 50% inhibition of smooth muscle cell proliferation. The protocol:
Primary cultures of human aortic smooth muscle cells were obtained from Clonetics. SMC were initially grown in T-75 flasks prior to seeding in 96 well plates. The 96-well plates were seeded with 4000 cells/well. The following day cells were washed with serum free medium and left in serum free media for 24 hours for serum starvation. The next day cells received growth medium containing serum with or without compound. The 24 h post treatment cell proliferation was assayed either assessing the incorporation of radiolabeled thymidine to DNA or using a non-radioactive cell proliferation kit from Promega (CellTiter AQ).

For data set [4], the system named is IL-6 (interleukin-6) expression. The data set is described as follows: IL-6 ELISA (inflammation assay in HAECs). The format is cell-based. As to conditions: endothelial cell media; TNFα (0.5 ng/mL) or glycated human serum albumin (300 μg/mL), 18-24 h; read-out: IC50, IL-6 enzyme-linked immunosorbent assay. As for the experimental part: as §1
IL-6 expression in endothelial cell media were determined using DuaSet IL-6 ELISA kit from R&D Systems (Cat No DY206) as described by the manufacturer. Mouse anti-human IL-6 antibody was used as the capture antibody and biotinylated goat anti-human IL-6 was used as detection antibody. Culture medium was incubated with the capture antibody (in 96-well plate) for 2 h at room temperature. Wells were washed three times with wash buffer (0.05% Tween-20 in PBS) followed by incubation with detection antibody for 2 h at room temperature. The wells were then incubated with streptavidin HRP and color development was read at 450 nm in a microplate reader.

As a reminder, the melting point is the temperature, or range, at which the solid turns liquid.

In the case of `COc1ccc(Nc2nc(-c3ccc(F)cc3)cc3ccc(C)cc23)cc1Cl` [E 6, (3-Chloro-4-methoxy-phenyl)-[3-(4-fluoro-phenyl)-7-methyl-isoquinolin-1-yl]-amine], the melting point fell in the range of 154 to 156 °C. Turning to `COc1cc(Nc2cc(-c3ccc(F)cc3)nc3ccccc23)ccc1Cl` [E 13, (4-Chloro-3-methoxy-phenyl)-[2-(4-fluoro-phenyl)-quinolin-4-yl]-amine], the melting point was in the range of 274 to 276 °C. Moreover, the IC50 in data set [1] came out at 5000 nM. In data set [2], the IC50 came to 3500 nM. The like results for `CNC(=O)c1ccc(Nc2cc(-n3ccc(C(F)(F)F)n3)c3ccccc3n2)cc1` [E 22, N-Methyl-4-[4-(3-trifluoromethyl-pyrazol-1-yl)-quinolin-2-ylamino]-benzamide] were, in that order, 250 to 252 °C, 750 nM and 2100 nM. In turn, `CS(=O)(=O)c1ccc(-c2cc(-n3ccc(C(F)(F)F)n3)c3ccccc3n2)cc1` [E 17, 2-(4-Methanesulfonyl-phenyl)-4-(3-trifluoromethyl-pyrazol-1-yl)-quinoline] had a melting point of 194 to 196 °C. The same measure, in the same setting: next, `c1ccc(-c2cc(-n3ccc4ccccc43)c3ccccc3n2)cc1` [E 9, 4-Indol-1-yl-2-phenyl-quinoline]: 100 to 102 °C. On the same count and under the same terms, next, `COc1ccc(Nc2cc(-c3ccncc3)nc3ccccc23)cc1Cl` [E 1, (3-Chloro-4-methoxy-phenyl)-(2-pyridin-4-yl-quinolin-4-yl)-amine]: 280 to 282 °C.

Compound `FC(F)(F)Oc1ccc(Nc2cc(-n3ccc(C(F)(F)F)n3)c3ccccc3n2)cc1` [E 19, (4-Trifluoromethoxy-phenyl)-[4-(3-trifluoromethyl-pyrazol-1-yl)-quinolin-2-yl]-amine] displayed a melting point of 128 to 130 °C. In addition, the IC50 in data set [1] is 1000 nM. The IC50 in data set [2] was 1000 nM. As for `COc1ccc(Nc2nc(-c3ccc(F)cc3)cc3ccc(C)cc23)cc1F` [E 7, (3-Fluoro-4-methoxy-phenyl)-[3-(4-fluoro-phenyl)-7-methyl-isoquinolin-1-yl]-amine], the melting point lay in the range of 163 to 165 °C. The IC50 in data set [1] was 5000 nM. Turning to `FC(F)(F)c1ccn(-c2cc(N3CCOCC3)nc3ccccc23)n1` [E 20, 2-Morpholin-4-yl-4-(3-trifluoromethyl-pyrazol-1-yl)-quinoline], the melting point was in the range of 118 to 120 °C. For `CSc1ccc(-c2cc(-n3ccc(C(F)(F)F)n3)c3ccccc3n2)cc1` [E 16, 2-(4-Methylsulfanyl-phenyl)-4-(3-trifluoromethyl-pyrazol-1-yl)-quinoline], the melting point was in the range of 116 to 118 °C. The IC50 in data set [3] worked out at 1160 nM. In turn, `Oc1ccc(-c2nc(-c3ccccc3)nc3ccccc23)c(O)c1` [E 4, 4-(2-Phenyl-quinazolin-4-yl)-benzene-1,3-diol] came in with a melting point of 178 to 180 °C. `CS(=O)(=O)c1ccc(Nc2cc(-n3ccc(C(F)(F)F)n3)c3ccccc3n2)cc1` [E 23, (4-Methanesulfonyl-phenyl)-[4-(3-trifluoromethyl-pyrazol-1-yl)-quinolin-2-yl]-amine]: the melting point is 194 to 196 °C. For the same compound, in data set [1], the IC50 came to 9000 nM. In addition, the IC50 in data set [2] was 8100 nM. The compound `COc1ccc(Nc2nc(-c3ccncc3)nc3ccccc23)cc1Cl` [E 2, (3-Chloro-4-methoxy-phenyl)-(2-pyridin-4-yl-quinazolin-4-yl)-amine] gave a melting point above 220 °C. `COc1ccc(Nc2cc(-c3ccc(F)cc3)nc3ccccc23)cc1Cl` [E 8, (3-Chloro-4-methoxy-phenyl)-[2-(4-fluoro-phenyl)-quinolin-4-yl]-amine] yielded a melting point of 260 °C. For the same compound, the inhibition at 1 µM in data set [3] (at 1 μM, read-out: Effect: % inhibition of smooth muscle cell proliferation) was 77%. Moreover, the IC50 in data set [1] amounted to 2100 nM. The IC50 in data set [2] came to 3600 nM. The compound `Oc1ccc(-c2nc(-c3ccncc3)nc3ccccc23)c(O)c1` [E 3, 4-(2-Pyridin-4-yl-quinazolin-4-yl)-benzene-1,3-diol] showed a melting point of 280 to 282 °C.

With `CNS(=O)(=O)c1ccc(Nc2cc(-n3ccc(C(F)(F)F)n3)c3ccccc3n2)cc1` [E 21, N-Methyl-4-[4-(3-trifluoromethyl-pyrazol-1-yl)-quinolin-2-ylamino]-benzenesulfonamide], the melting point was in the range of 220 to 222 °C. Besides, the IC50 in data set [1] stood at 430 nM. Moreover, the IC50 in data set [2] turned out to be 610 nM. As for `Fc1ccc(-c2cc(-n3ccc(C(F)(F)F)n3)c3ccccc3n2)cc1` [E 11, 2-(4-Fluoro-phenyl)-4-(3-trifluoromethyl-pyrazol-1-yl)-quinoline], in data set [3], the IC50 amounted to 1000 nM. Take `COc1ccc(Nc2cc(-c3ccccc3)nc3ccccc23)cc1Cl` [E 5, (3-Chloro-4-methoxy-phenyl)-(2-phenyl-quinolin-4-yl)-amine]: the melting point is 272 to 274 °C. The IC50 in data set [4] amounted to 2000 nM. In turn, `FC(F)(F)Oc1ccc(-c2cc(-n3ccc(C(F)(F)F)n3)c3ccccc3n2)cc1` [E 18, 2-(4-Trifluoromethoxy-phenyl)-4-(3-trifluoromethyl-pyrazol-1-yl)-quinoline] showed a melting point of 108 to 110 °C. For the same compound, the IC50 in data set [3] was 2330 nM.

For the compound `FC(F)(F)c1ccn(-c2cc(-c3ccc4c(c3)OCO4)nc3ccccc23)n1` [E 15, 2-Benzo[1,3]dioxol-5-yl-4-(3-trifluoromethyl-pyrazol-1-yl)-quinoline], the melting point was 98 to 100 °C. For the same compound, the IC50 in data set [1] was 4200 nM. Moreover, the IC50 in data set [2] worked out at 5000 nM. `Clc1ccc2c(ccn2-c2cc(-c3ccccc3)nc3ccccc23)c1` [E 10, 4-(5-Chloro-indol-1-yl)-2-phenyl-quinoline] registered a melting point of 148 to 150 °C.

Values taken from patent US20060128702A1, “Heterocyclic and bicyclic compounds, compositions and methods” (priority 2004, published 2006).
